melting point: 80 to 82 °C
Structure (SMILES): CO/N=C/CCNC(=O)c1cnccc1C(F)(F)F [Example I, N-(4-Trifluoromethylnicotinoyl)-3-aminopropionaldehyde O-methyl oxime]

From patent US20060173022A1, “Heterocyclic amides, method for the production thereof, substances containing said heterocyclic amides, and use thereof as pesticides” (Bayer CropScience GmbH, priority 2003, published 2006)
